Each structure is given as a SMILES string.

One assay deals with T1, endogenous CETP from serum (Homo sapiens, UniProt P11597).
T1 construct: yielding a concentration of approximately 15 nM endogenous CETP in the assay; from tissue; host or cells: human serum
T1 sequence (P11597 18-493): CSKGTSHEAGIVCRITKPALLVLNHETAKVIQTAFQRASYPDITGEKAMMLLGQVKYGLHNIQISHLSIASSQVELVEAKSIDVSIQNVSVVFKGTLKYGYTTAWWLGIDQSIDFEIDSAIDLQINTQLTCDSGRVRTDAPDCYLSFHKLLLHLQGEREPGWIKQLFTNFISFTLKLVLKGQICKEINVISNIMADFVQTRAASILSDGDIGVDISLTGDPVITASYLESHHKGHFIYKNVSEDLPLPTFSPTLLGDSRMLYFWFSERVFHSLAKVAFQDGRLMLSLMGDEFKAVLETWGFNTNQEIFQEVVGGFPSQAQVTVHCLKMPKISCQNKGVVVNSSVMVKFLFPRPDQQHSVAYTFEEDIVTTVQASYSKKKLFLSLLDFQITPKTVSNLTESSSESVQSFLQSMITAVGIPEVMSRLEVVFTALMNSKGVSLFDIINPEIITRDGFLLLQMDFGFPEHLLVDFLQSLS
Put plainly: RTA assay in 95% human serum (in vitro radioactive assay of CETP-catalyzed CE and TG transfer). Conditions: RTA assay in 95% human serum, endogenous CETP; read-out: RTA (95% HS). The class given is biochemical. The text has this: In Vitro Radioactive Assays of CETP-Catalyzed CE and TG Transfer (RTA Assay)
Reagents and sources are: [3H] cholesteryl oleate (GE #TRK.886), [3H] Triolein (Perkin-Elmer NET-431), Butylated hydroxyl toluene (Aldrich, #D4740-4), DOPC (Sigma, # P6354), Sodium Bromide (Fisher scientific #S255-500), PEG 8000 (Fisher, #BP233-1), and human HDL (Intracel Corp #RP-036).
Both assays measure the transfer of [3H] cholesteryl oleate or [3H] triolein from exogenous LDL to HDL.
Radiolabeled donor particles are generated by first combining 100 μl of 200 μM butylated hydroxyl toluene in CHCl3, 216 μL of 21.57 mM DOPC in EtOH, and either 500 μCi [3H]-triolein (Perkin Elmer #NET-431) or 500 μCi [3H]-cholesteryl oleate (GE #TRK886) in a glass tube. Reagents are mixed, dried under nitrogen, and then resuspended in 2 mL of 50 mM Tris, 27 μM EDTA at pH 7.4. After a brief vortex, the solution is sonicated until clear and mixed with 20 mL of fresh human serum. The mixture is incubated overnight at 37° C. The [3H] labeled LDL substrate is separated at 1.063 g/ml density by sequential ultracentrifugal flotation in NaBr according to the method of Havel, Eder, et al., 1955, and Chapman, Goldstein, et al., 1981. Once isolated the particles are dialyzed 3× in CETP buffer (50 mM Tris, pH 7.4, 100 mM NaCl, 1 mM EDTA). Human HDL is purchased from Intracel and used as the acceptor particles.
Transfer assays are performed in a 96-well v-bottom polypropylene plate. For the RTA using recombinant CETP (2% RTA), an assay cocktail is prepared with the final concentrations 128 μg/mL HDL, 20 nM rCETP, 2% human serum, and 1×CETP buffer. 1 μL of each test compound diluted in DMSO is added to 47 μL of assay cocktail per well and incubated at 37° C. for 1 hour. To initiate the transfer reaction, 2 μL radiolabeled LDL is added. After an additional 60 min of incubation at 37° C., the transfer action is terminated by precipitation of LDL with an equal volume of 20% WN PEG 8000. The plates are centrifuged at 2000 rpm for 30 minutes at 4° C. A 40 μL aliquot of the HDL-containing supernatant is transferred to a Packard Optiplate™ with 200 μL of MicroScint™ 20. After mixing, plates are counted by liquid scintillation. Counts present in the supernatant for blanks (wells containing only HDL acceptor, CETP buffer and DMSO) are subtracted from those containing test compounds and used to correct for non-specific transfer.
This is then combined with HDL and CETP buffer and the reaction proceeds as above and is terminated as described.
Comparison of the counts of samples with inhibitors to an uninhibited (DMSO only) positive control yield a percent inhibition. A plot of percent inhibition vs. log of inhibitor concentration, fit to a Sigmoidal 4 parameter equation is used to calculate IC50.
Starting materials are commercially available or are made using known procedures or as shown below. The examples may be synthesized according to the general schemes provided below and by using the synthetic intermediates that are described. […] When compounds of Formula I are mentioned herein, such compounds include compounds defined generically by Formula I and also the specific examples disclosed herein.
Consider `COc1ncc(-c2ccc(C(=O)O)cc2C)cc1-c1ccc(C(F)(F)F)cc1[C@@H]1CC[C@H]2[C@@H](c3cc(C(F)(F)F)cc(C(F)(F)F)c3)NC(=O)N12` [Example 1, 4-(5-(2-((1R,5 S,7aS)-1-(3,5-bis(trifluoromethyl)phenyl)-3-oxohexahydro-1H-pyrrolo[1,2-c]imidazol-5-yl)-4-(trifluoromethyl)phenyl)-6-methoxypyridin-3-yl)-3-methylbenzoic acid], for which the IC50 was determined as 335 nM.

In the case of `COc1ncc(-c2ccc(C(=O)NC3(C#N)CC3)cc2C)cc1-c1ccc(C(F)(F)F)cc1[C@@H]1CC[C@H]2[C@@H](c3cc(C(F)(F)F)cc(C(F)(F)F)c3)NC(=O)N12` [Example 2, 4-{5-[2-{(1R,5S,7aS)-1-[3,5-bis(trifluoromethyl)phenyl]-3-oxohexahydro-1H-pyrrolo[1,2-c]imidazol-5-yl}-4-(trifluoromethyl)phenyl]-6-methoxypyridin-3-yl}-N-(1-cyanocyclopropyl)-3-methylbenzamide], the IC50 was determined as 276 nM.

`COc1ccc(C2CCC(C(=O)O)CC2)cc1-c1ccc(C(F)(F)F)cc1[C@@H]1CC[C@H]2[C@@H](c3cc(C(F)(F)F)cc(C(F)(F)F)c3)NC(=O)N12` (stereo partly drawn) [Example 3, 4-(2′-((1R,5 S,7aS)-1-(3,5-bis(trifluoromethyl)phenyl)-3-oxohexahydro-1H-pyrrolo[1,2-c]imidazol-5-yl)-6-methoxy-4′-(trifluoromethyl)-[1,1′-biphenyl]-3-yl)cyclohexanecarboxylic acid]: the IC50 was 1730 nM.

Still in this assay, the particulars now being: Table 1; data generally obtained using the RTA assay in 95% human serum; read-out: IC50.
With `COc1ncc(-c2ccc(C(=O)O)cc2C)cc1-c1ccc(C(F)(F)F)cc1[C@@H]1CC[C@H]2[C@@H](c3cc(C(F)(F)F)cc(C(F)(F)F)c3)N(C)C(=O)N12` [Example 4, 4-{5-[2-{(1R,5S,7aS)-1-[3,5-bis(trifluoromethyl)phenyl]-2-methyl-3-oxohexahydro-1H-pyrrolo[1,2-c]imidazol-5-yl}-4-(trifluoromethyl)phenyl]-6-methoxypyridin-3-yl}-3-methylbenzoic acid], the IC50 worked out at 1500 nM.

On to `COc1ncc(-c2c(C)cc(C(=O)O)cc2C)cc1-c1ccc(C(F)(F)F)cc1[C@@H]1CC[C@H]2[C@@H](c3cc(C(F)(F)F)cc(C(F)(F)F)c3)NC(=O)N12` [Example 5, 4-{5-[2-{(1R,5S,7aS)-1-[3,5-bis(trifluoromethyl)phenyl]-3-oxohexahydro-1H-pyrrolo[1,2-c]imidazol-5-yl}-4-(trifluoromethyl)phenyl]-6-methoxypyridin-3-yl}-3,5-dimethylbenzoic acid], for which the IC50 turned out to be 392 nM.

For the molecule `COc1cc(F)c(C(C)C)cc1-c1ccc(C(F)(F)F)cc1[C@@H]1CC[C@H]2[C@@H](c3cc(F)cc(C(F)(F)F)c3)NC(=O)N12` [Example 6], the IC50 was 1070 nM.

Take `COc1ccc(CCC(=O)O)cc1-c1ccc(C(F)(F)F)cc1[C@@H]1CC[C@H]2[C@@H](c3cc(C(F)(F)F)cc(C(F)(F)F)c3)NC(=O)N12` [Example 7, 3-[2′-{(1R,5S,7aS)-1-[3,5-bis(trifluoromethyl)phenyl]-3-oxohexahydro-1H-pyrrolo[1,2-c]imidazol-5-yl}-6-methoxy-4′-(trifluoromethyl)biphenyl-3-yl]propanoic acid]: the IC50 was determined as 1200 nM.

Turning to `COc1ccc(-c2ccc(C(=O)O)cc2C)cc1-c1ccc(C(F)(F)F)cc1[C@@H]1CC[C@H]2[C@@H](c3cc(C(F)(F)F)cc(C(F)(F)F)c3)NC(=O)N12` [Example 9], the IC50 was 1360 nM.

Regarding `COc1ccc(CCC(=O)O)cc1-c1ccc(C(F)(F)F)cc1[C@@H]1CC[C@H]2[C@@H](c3cc(C(F)(F)F)cc(C(F)(F)F)c3)N(C)C(=O)N12` [Example 10, 3-[2′-{(1R,5S,7aS)-1-[3,5-bis(trifluoromethyl)phenyl]-2-methyl-3-oxohexahydro-1H-pyrrolo[1,2-c]imidazol-5-yl}-6-methoxy-4′-(trifluoromethyl)biphenyl-3-yl]propanoic acid], the IC50 stood at 2950 nM.

For the molecule `COc1ccc(-c2ccc(C(=O)O)cc2C)cc1-c1ccc(C(F)(F)F)cc1[C@@H]1CC[C@H]2[C@@H](c3cc(C(F)(F)F)cc(C(F)(F)F)c3)N(C)C(=O)N12` [Example 12, 2″-{(1R,5S,7aS)-1-[3,5-bis(trifluoromethyl)phenyl]-2-methyl-3-oxohexahydro-1H-pyrrolo[1,2-c]imidazol-5-yl}-4′-methoxy-2-methyl-4″-(trifluoromethyl)-l,1′:3′,l″-terphenyl-4-carboxylic acid], the IC50 came to 1420 nM.

Consider `COc1ccc(-c2cccnc2C)cc1-c1ccc(C(F)(F)F)cc1[C@@H]1CC[C@H]2[C@@H](c3cc(C(F)(F)F)cc(C(F)(F)F)c3)NC(=O)N12` [Example 13, (1R,5S,7aS)-1-[3,5-bis(trifluoromethyl)phenyl]-5-[2′-methoxy-5′-(2-methylpyridin-3-yl)-4-(trifluoromethyl)biphenyl-2-yl]hexahydro-3H-pyrrolo[1,2-c]imidazol-3-one], for which the IC50 stood at 795 nM.

As for `COc1ccc(-c2ccc(C(=O)O)nc2C)cc1-c1ccc(C(F)(F)F)cc1[C@@H]1CC[C@H]2[C@@H](c3cc(C(F)(F)F)cc(C(F)(F)F)c3)NC(=O)N12` [Example 14, 5-[2′-{(1R,5S,7aS)-1-[3,5-bis(trifluoromethyl)phenyl]-3-oxohexahydro-1H-pyrrolo[1,2-c]imidazol-5-yl}-methoxy-4′-(trifluoromethyl)biphenyl-3-yl]-6-methylpyridine-2-carboxylic acid], the IC50 turned out to be 1930 nM.

On to `COc1ccc([C@H]2[C@H](C)C(=O)N[C@@H]2C)cc1-c1ccc(C(F)(F)F)cc1[C@@H]1CC[C@H]2[C@@H](c3cc(C(F)(F)F)cc(C(F)(F)F)c3)NC(=O)N12` [Example 15, (1R,5S,7aS)-1-[3,5-bis(trifluoromethyl)phenyl]-5-{5′-[(2R,3R,4S)-2,4-dimethyl-5-oxopyrrolidin-3-yl]-2′-methoxy-4-(trifluoromethyl)biphenyl-2-yl}hexahydro-3H-pyrrolo[1,2-c]imidazol-3-one], for which the IC50 was 1740 nM.

On to `COc1ccc(-c2ccc(C(=O)O)cc2C)cc1-c1ccc(C(F)(F)F)cc1[C@@H]1CC[C@H]2[C@@H](c3cc(F)cc(C(F)(F)F)c3)NC(=O)N12` [Example 16, 2″-{(1R,5S,7aS)-1-[3-fluoro-5-(trifluoromethyl)phenyl]-3-oxohexahydro-1H-pyrrolo[1,2-c]imidazol-5-yl}-4′-methoxy-2-methyl-4″-(trifluoromethyl)-1,1′:3′,1″-terphenyl-4-carboxylic acid], for which the IC50 was found to be 1510 nM.

Turning to `COc1ccc(CCC(=O)O)cc1-c1ccc(C(F)(F)F)cc1[C@@H]1CC[C@H]2[C@@H](c3cc(F)cc(C(F)(F)F)c3)NC(=O)N12` [Example 17, 3-[2′-{(1R,5S,7aS)-1-[3-fluoro-5-(trifluoromethyl)phenyl]-3-oxohexahydro-1H-pyrrolo[1,2-c]imidazol-5-yl}-6-methoxy-4′-(trifluoromethyl)biphenyl-3-yl]propanoic acid], the IC50 worked out at 3160 nM.

Values taken from patent US9981970B2, “Bicyclic ureas and thiadiazolidine-1, 1-dioxides as CETP inhibitors” (Merck Sharp & Dohme Corp., priority 2013, dated 2018).
